Patent publication US20220142990A1, “EXTERNAL PREPARATION FOR TREATING A VASCULAR ANOMALY” (OSAKA UNIVERSITY, priority 2019, published 2022)

Assay: Test Example 4: sirolimus in blood of the patients
Assay type: in vivo, human
Conditions: Patients A, B, C; 0.2% sirolimus gel applied to lesion twice a day for 12 weeks; not detected, measurement limit value
Procedure: The gel containing 0.2 wt % of sirolimus produced in Production Example 3 (hereinafter referred to as 0.2% sirolimus gel) was applied to a lesion portion twice a day for 12 weeks. An approximate size of an application target lesion was measured to determine a single application amount. The application amount was set to about 125 mg of gel per 50 cm^2. In the sirolimus gel treatment period (12 weeks), no combined medicine was used, and no combination therapy was performed.
Sirolimus was not detected from the blood of any of the patients (measurement limit value: 1.0 ng/mL).

SMILES: CO[C@H]1C[C@@H]2CC[C@@H](C)[C@@](O)(O2)C(=O)C(=O)N2CCCC[C@H]2C(=O)O[C@H]([C@H](C)C[C@@H]2CC[C@@H](O)[C@H](OC)C2)CC(=O)[C@H](C)/C=C(\C)[C@@H](O)[C@@H](OC)C(=O)[C@H](C)C[C@H](C)/C=C/C=C/C=C/1C [Sirolimus, sirolimus]
- sirolimus in blood: < 1.0 ng/mL
